The results in this text go back to patent US10669246B2, “Benzothiazol compounds and methods using the same for treating neurodegenerative disorders” (1ST Biotherapeutics, Inc., priority 2017, dated 2020).

One data set is described as follows: in vivo. The note with it: male, ICR, mouse, po, 5 mg/kg.
Data set [1] in a line: Oral dose pharmacokinetic study in mice. The note with it: for brain exposure compared with nilotinib: oral 5 mg/kg.
Another data set deals with hERG (Homo sapiens (Human), UniProt Q12809). Nature of the data set: hERG activity.
Chain of hERG (Q12809 whole entry): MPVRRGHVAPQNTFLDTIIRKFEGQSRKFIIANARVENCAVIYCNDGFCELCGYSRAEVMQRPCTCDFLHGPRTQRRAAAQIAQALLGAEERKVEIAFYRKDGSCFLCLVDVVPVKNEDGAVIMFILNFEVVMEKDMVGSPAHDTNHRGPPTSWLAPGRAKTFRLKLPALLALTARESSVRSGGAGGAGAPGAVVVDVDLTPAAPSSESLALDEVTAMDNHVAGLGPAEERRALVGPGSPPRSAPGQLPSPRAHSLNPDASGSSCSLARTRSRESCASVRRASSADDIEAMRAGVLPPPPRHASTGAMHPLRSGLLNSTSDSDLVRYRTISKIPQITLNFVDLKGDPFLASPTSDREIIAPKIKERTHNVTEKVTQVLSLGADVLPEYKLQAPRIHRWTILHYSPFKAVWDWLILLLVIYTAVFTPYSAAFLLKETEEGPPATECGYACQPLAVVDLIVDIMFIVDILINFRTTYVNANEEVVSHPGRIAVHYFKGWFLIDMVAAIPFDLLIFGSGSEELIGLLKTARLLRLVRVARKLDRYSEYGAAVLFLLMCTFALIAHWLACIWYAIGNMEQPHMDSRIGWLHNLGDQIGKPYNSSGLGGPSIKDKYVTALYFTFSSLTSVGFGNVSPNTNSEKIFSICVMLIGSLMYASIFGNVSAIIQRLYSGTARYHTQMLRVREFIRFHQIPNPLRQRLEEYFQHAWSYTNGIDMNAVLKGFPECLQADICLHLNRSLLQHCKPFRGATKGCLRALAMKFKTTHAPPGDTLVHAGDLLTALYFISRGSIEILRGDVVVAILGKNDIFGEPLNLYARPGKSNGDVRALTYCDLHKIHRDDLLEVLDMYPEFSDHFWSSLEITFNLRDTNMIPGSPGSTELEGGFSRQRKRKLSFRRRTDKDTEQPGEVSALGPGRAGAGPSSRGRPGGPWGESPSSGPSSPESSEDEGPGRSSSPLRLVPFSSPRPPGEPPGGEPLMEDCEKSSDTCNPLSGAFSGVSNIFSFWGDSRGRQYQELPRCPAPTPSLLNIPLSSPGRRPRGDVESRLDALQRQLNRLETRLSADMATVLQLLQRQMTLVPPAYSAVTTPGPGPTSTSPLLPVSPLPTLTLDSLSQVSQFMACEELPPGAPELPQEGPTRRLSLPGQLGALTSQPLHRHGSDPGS
For the next data set, the target named is Recombinant human c-Kit (Homo sapiens (Human), UniProt P10721). Put plainly: c-KIT kinase assay (ADP-Glo). The data set is classed as biochemical. The conditions noted are these: Table 3, kinase selectivity. As to the method: ADP-Glo assay kit was purchased from Promega. Magnesium chloride (MgCl2), Manganese(II) chloride (MnCl2), Bovine serum albumin (BSA) and dimethylsulfoxide (DMSO) were purchased from Sigma-Aldrich. Tris-HCl buffer was purchased from Biosesang. c-Kit kinase and Poly (4:1 Glu, Tyr) Peptide were purchased from Signalchem.
Chain of Recombinant human c-Kit (P10721 26-976): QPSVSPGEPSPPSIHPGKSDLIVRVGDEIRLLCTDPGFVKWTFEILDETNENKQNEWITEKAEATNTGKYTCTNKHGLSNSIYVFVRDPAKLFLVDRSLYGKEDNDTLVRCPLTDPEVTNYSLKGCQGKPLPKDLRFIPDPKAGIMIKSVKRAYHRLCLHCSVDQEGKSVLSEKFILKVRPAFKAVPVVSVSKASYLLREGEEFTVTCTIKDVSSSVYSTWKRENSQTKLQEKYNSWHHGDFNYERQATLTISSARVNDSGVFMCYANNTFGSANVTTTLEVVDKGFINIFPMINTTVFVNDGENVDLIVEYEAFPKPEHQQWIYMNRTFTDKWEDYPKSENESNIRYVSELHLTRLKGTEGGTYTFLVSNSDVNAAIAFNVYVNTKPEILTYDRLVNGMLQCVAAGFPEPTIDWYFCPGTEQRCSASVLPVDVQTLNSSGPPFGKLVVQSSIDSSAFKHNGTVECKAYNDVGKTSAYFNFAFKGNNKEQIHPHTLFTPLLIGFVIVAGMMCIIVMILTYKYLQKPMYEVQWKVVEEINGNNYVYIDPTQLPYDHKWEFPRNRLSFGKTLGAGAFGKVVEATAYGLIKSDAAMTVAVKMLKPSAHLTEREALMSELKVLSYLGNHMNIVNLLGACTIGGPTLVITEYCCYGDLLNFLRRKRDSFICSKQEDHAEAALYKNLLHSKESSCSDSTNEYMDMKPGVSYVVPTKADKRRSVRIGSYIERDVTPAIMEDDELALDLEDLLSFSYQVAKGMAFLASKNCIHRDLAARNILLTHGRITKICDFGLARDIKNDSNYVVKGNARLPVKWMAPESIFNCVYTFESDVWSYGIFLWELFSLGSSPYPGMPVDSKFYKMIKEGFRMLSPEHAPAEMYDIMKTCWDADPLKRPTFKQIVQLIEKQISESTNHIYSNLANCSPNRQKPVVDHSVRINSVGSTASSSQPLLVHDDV
c-Kit kinase activity was measured by Promega's ADP-Glo™ Assay.

Data set [2] relates to Aβ25-35 induced AD mice. Put plainly: Lipid peroxidation in hippocampus homogenates of Aβ25-35 injected mice. The format is in vivo. The note with it: once daily oral dosing of 3 mg/kg and 10 mg/kg. From the text:
10 Days after ICV injection of oligomeric Aβ25-35 peptide, the hippocampus was dissected out. And lipid peroxidation level was quantified in the hippocampus homogenates. ICV injection of oligomeric Aβ25-35 peptide induced lipid peroxidation, a marker for oxidative stress. […] (FIG. 7)

Data set [3] has as its system Aβ25-35 induced AD mice. Put plainly: Y-maze spontaneous alternation in Aβ25-35 induced AD mice. The data set is classed as in vivo. The conditions noted are these: orally once daily for 10 days; Example 4 1, 3 and 10 mg/kg, nilotinib 3 mg/kg. The source says:
Y-maze test as a behavioral test was used to assess memory function and the willingness of rodents to explore new environments ICV injection of oligomeric Aβ25-35 peptide triggered neurotoxic effects and behavioral deficit in Y-maze test evaluating short term memory, by measurement of spontaneous alternation, while any change of motor symptom was not observed by measurement of locomotion.

The subject of data set [4] is α-synuclein PFF-induced pathologic aggregation (Lewy body-like pathology). Nature of the data set: α-synuclein PFF-induced pathologic aggregation. The format is cell-based.
The test system of data set [5] is PFF-induced neuronal toxicity. Put plainly: PFF-induced neuronal toxicity. The data set is classed as cell-based. The note with it: dose: 0.5, 1, 5, 10, 100 nM.
For data set [6], the system named is α-synuclein PFF induced PD mice. Nature of the data set: Pole test in α-synuclein PFF induced PD mice. The data set is classed as in vivo.
Data set [7] deals with Aβ25-35 induced AD mice. Nature of the data set: Step-through passive avoidance (STPA) test in Aβ25-35 induced AD mice. The format is in vivo. The conditions noted are these: orally once daily for 10 days; Example 4 1, 3 and 10 mg/kg, nilotinib 3 mg/kg.
Data set [8] has as its system Phosphorylation of α-synuclein at ser129. Nature of the data set: Phosphorylation of α-synuclein in α-synuclein PFF induced PD model. The data set is classed as in vivo, mice. The conditions noted are these: q.d.; for reduction of phosphorylation of α-synuclein at ser129: oral.
The mark [9] stands for this setting: 10 mg/kg orally once daily for 5 months.

On to `Cc1c(F)cncc1-c1ccc2nc(NC(=O)[C@@H]3C[C@@H]3F)sc2c1` [Example 8, (1S,2S)-2-fluoro-N-(6-(5-fluoro-4-methylpyridin-3-yl)benzo[d]thiazol-2-yl)cyclopropane-1-carboxamide], for which, in the data set “in vivo” (plasma), the highest level (Cmax) was 4.17 µg/mL and the Tmax was 60 min. Besides, in data set [1], the PK profile result is “good PK profiles” and the “brain exposure compared with nilotinib” value is recorded as “better brain exposure than nilotinib”. This molecule showed an inhibition at 10 µM against hERG of 12.6%.

For the molecule `Cc1ccc(O)cc1-c1ccc2nc(NC(=O)[C@@H]3C[C@@H]3F)sc2c1` [Example 14, (1S,2S)-2-fluoro-N-(6-(5-hydroxy-2-methylphenyl)benzo[d]thiazol-2-yl)cyclopropane-1-carboxamide], at Recombinant human c-Kit, the IC50 was determined as 1.34 µM.

For `Cc1ccncc1-c1ccc2nc(NC(=O)[C@@H]3C[C@@H]3F)sc2c1` [Example 4, (1S,2S)-2-fluoro-N-(6-(4-methylpyridin-3-yl)benzo[d]thiazol-2-yl)cyclopropane-1-carboxamide], in the data set on Aβ25-35 induced AD mice [2], the “lipid peroxidation (oxidative stress marker) in hippocampus” value was “completely inhibited”. Further, the area under the curve AUC(0-inf) in the data set “in vivo” (brain) was 4.14 µg·h/mL; in “in vivo” (plasma), 11.4 µg·h/mL. For the same molecule, the Cmax in the data set “in vivo” (plasma) amounted to 3.59 µg/mL. In “in vivo” (plasma), the time of peak concentration (Tmax) was 30 min. Besides, the “deficits of alternation behavior (spatial working memory)” value in the data set with Aβ25-35 induced AD mice [3] was “very significantly and fully alleviated”. Besides, in data set [4], the “α-synuclein PFF-induced pathologic aggregation (Lewy body-like pathology)” value is listed as “decreased”. In addition, in [1], the PK profile result is listed as “good PK profiles”. The AUCINF in data set [1] (PO 5 mg/kg, Table 5) was determined as 682041.7 ng·min/mL. The “brain exposure compared with nilotinib” value in [1] is reported as “better brain exposure than nilotinib”. Further, the PFF-induced neuronal toxicity entry in data set [5] was “inhibited PFF-induced neuronal toxicity in a dose dependent manner”. Moreover, in [6] (0.3 mg/kg orally once daily for 5 months), the “improvement of pole climb down time” value was 50%. The “pole climb down time” value in data set [6] (setting [9]) is “completely recovered”; in [6] (0.3, 1, 3 and 10 mg/kg orally once daily for 5 months) it was “recovered by treatment of Example 4 in a dose-dependent manner”. Moreover, in the data set on Aβ25-35 induced AD mice [7], the “contextual long-term memory deficits” value was “very significantly and fully alleviated”. Moreover, the “reduction of phosphorylation of α-synuclein at ser129” value in [8] (3 mg/kg) was “about 50%”; in [8] (10 mg/kg), ~80%.

For `Cc1ccncc1-c1ccc2nc(NC(=O)C3CC3)sc2c1` [Example 5, N-(6-(4-methylpyridin-3-yl)benzo[d]thiazol-2-yl)cyclopropanecarboxamide], the values for the total exposure AUC(0-inf) in the data set “in vivo” (brain) and in “in vivo” (plasma) were 1.98 µg·h/mL and 8.48 µg·h/mL, respectively.

As to `Cc1cn(-c2cc(NC(=O)c3ccc(C)c(Nc4nccc(-c5cccnc5)n4)c3)cc(C(F)(F)F)c2)cn1` [Nilotinib, nilotinib, reference compound], the “deficits of alternation behavior (spatial working memory)” value in the data set with Aβ25-35 induced AD mice [3] is given as “partially alleviated”. The “pole climb down time” value in data set [6] (setting [9]) is on record as “just a slight improvement”. Further, in the data set on Aβ25-35 induced AD mice [7], the “contextual long-term memory deficits” value is “no significant effect”. Also, the “effect on phosphorylation of α-synuclein” value in [8] (3 and 10 mg/kg) is listed as “not effective”.

In the case of `Cc1ccncc1-c1ccc2sc(NC(=O)[C@@H]3C[C@@H]3F)nc2c1` [Example 6, (1S,2S)-2-fluoro-N-(5-(4-methylpyridin-3-yl)benzo[d]thiazol-2-yl)cyclopropane-1-carboxamide], the AUC(0-inf) in “in vivo” (brain) was 3.95 µg·h/mL; in “in vivo” (plasma) it was 4.86 µg·h/mL. This molecule also displayed a partition ratio (Kp) in the data set “in vivo” (brain/plasma) of 0.5.

`Cc1c(O)cccc1-c1ccc2nc(NC(=O)[C@@H]3C[C@@H]3F)sc2c1` [Example 22, (1S,2S)-2-fluoro-N-(6-(3-hydroxy-2-methylphenyl)benzo[d]thiazol-2-yl)cyclopropane-1-carboxamide]: the half-maximal inhibitory concentration (IC50) at Recombinant human c-Kit amounted to 1.02 µM.

With `C=C(C)c1ccc(C)c(-c2ccc3nc(NC(=O)[C@@H]4C[C@@H]4F)sc3c2)c1` [Example 17, (1S,2S)-2-fluoro-N-(6-(2-methyl-5-(prop-1-en-2-yl)phenyl)benzo[d]thiazol-2-yl)cyclopropane-1-carboxamide], the 50% inhibitory concentration (IC50) at Recombinant human c-Kit is > 10 µM.
